Experimental data as given in patent US12365739B2, “Monoclonal antibodies to angiotensin-(1-12), compositions including the same, and methods of use thereof” (Wake Forest University Health Sciences, priority 2021, dated 2025).

Key:
TGR(hAGT)L1623 rats = settings: chronic administration; cited from earlier work
Ang II = molecular target: T1, Ang II (Homo sapiens, UniProt P01019); experiment: Specificity of immunoneutralization: pressor response to Ang II; format: in vivo
T1 construct: host or cells: injected into TGR(hAGT)L1623 rats
Procedure: In a separate group of 12 TGR(hAGT)L1623 rats (6 females) the blood pressure and heart rate responses to intravenous bolus injection of a monoclonal antibody directed against the human amino acid sequence of Ang-(1-12) [Ang-(1-12)-mAb] was administered at a dose of 30 mg/kg. […] The Ang-(1-12)-mAb was diluted in physiological saline to a concentration of 30 mg in a volume not to exceed 1 mL of buffered saline. The specificity of the immunoneutralization of Ang-(1-12) was evaluated in additional experiments in which the rat sequence of Ang-(1-12) (300 pmol/kg, n=2); Ang II (50 pmol/kg; n=3 TGR(hAGT)L1623 rats) or an […] mouse IgG (30 mg/kg, n=4 TGR(hAGT)L1623 rats; Innovative Research, Inc. Novi, MI) were administered intravenously.

[1] = tested on: isolated carotid artery rings; experiment: Ang-(1-12) constrictor activity in isolated carotid artery rings; design: species or system rat; settings: concentration of 5×10^−1; SD and TGR(hAGT)L1623 rats; FIG. 7
Source text: Efficacy of Ang-(1-12) Immunoneutralization in Isolated Carotid Arteries. The ability of the Ang-(1-12)-mAb to block Ang-(1-12) vasoconstrictor activity in 6 SD and 3 TGR(hAGT)L1623 rats was further assessed in isolated carotid artery rings that were mounted in organ chambers as described elsewhere.^3 Under a dissecting microscope, both carotid arteries were dissected free of adventitial tissue, cut into 1.5-2 mm segments and mounted on a myograph (Multi Myograph, Model 610M Danish Myo Technologies, Aarhus, Denmark) using two stainless steel hooks. In all the arterial segments, the endothelium was disrupted by passing a human hair through the lumen of the vessel. The myograph chamber was filled with Krebs-Henseleit buffer (KHB) solution, maintained at 37° C. and aerated with 95% O2/5% CO2. The vessels were washed and incubated for 30 min before determining the optimal diameter. Each arterial segment was stretched to its individual optimal lumen diameter following the normalization procedure previously described. In all studies, after obtaining the optimal diameter, a 30-min equilibration period preceded the addition of the test substances. Contractile responses to a single dose of 62.5 mM KCl was obtained for all segments by calculating the average of three consecutive doses tested at 15 min intervals. This response was used to normalize tension between individual arterial segments. […]

[2] = tested on: Sprague Dawley (SD) rats and TGR(hAGT)L1623 rats; experiment: Systemic vasoconstrictor activity of intravenous h-Ang-(1-12); format: in vivo, rat; settings: for time to peak of increase in mean arterial pressure: 75-300 pmol/kg i.v.
Procedure: Efficacy of Ang-(1-12) Immunoneutralization in vivo: We examined the systemic vasoconstrictor activity of Ang-(1-12) (dose range 75-300 pmol) in 20 (10 females) Sprague Dawley (SD) rats (age 12-weeks) and 20 (10 female) other rats expressing the human sequence of the AGT gene [TGR(hAGT)L1623] (age 10-12 weeks) following induction of general anesthesia with thio-butabarbital sodium [Inactin® (135 mg/kg, i.p.)] and tracheal intubation for mechanical ventilation. Plastic catheters were introduced into a left carotid artery [PE-50 catheter attached to a heparinized saline wash syringe (15 USP U/mL) and a femoral vein (PE-10) for drug delivery. Phasic and mean arterial pressures, recorded with a True Wave pressure transducer (Edwards Lifesciences, Co, Irvine, CA) connected to the arterial cannula, were processed by a data-acquisition and analysis system with Acknowledge 5 software (MP160, BIOPAC System Inc., Goleta, CA). Heart rate was derived by the software from the electrical analysis of the rise portion of the pressure waveform.

CCCCC(=O)N(Cc1ccc(-c2ccccc2-c2nnn[nH]2)cc1)[C@H](C(=O)O)C(C)C [valsartan]
effect on hypertension (TGR(hAGT)L1623 rats): Reversal of the hypertension

angiotensin II (DRVYIHPF; listed as Homo sapiens) [Ang II]
peak mean arterial pressure after bolus intravenous Ang II (Ang II; 30-60 min after delivery of the Ang-(1-12) mAb, baseline 100±12 mm Hg): 117±13 mm Hg | peak mean arterial pressure after bolus intravenous Ang II (Ang II; before the Ang-(1-12) mAb, baseline 95±6 mm Hg): 114±8 mm Hg

human angiotensin-(1-12) (DRVYIHPFHLVI; listed as Homo sapiens) [h-Ang-(1-12)]
constrictor responses in carotid artery rings normalized for KCL [1]: significant constrictor responses | time to peak of increase in mean arterial pressure ([2]; SD rats): 32.45 ± 1.08 s | time to peak of increase in mean arterial pressure ([2]; TGR(hAGT)L1623 rats): 36.20 ± 1.52 s | change in mean arterial pressure ([2]; i.v. doses between 75 pmol/kg and 300 pmol/kg): rapid and dose-dependent increases
